Experimental data published in paper PMC8351946, “Mle046 Is a Marine Mesophilic MHETase-Like Enzyme” (Frontiers in Microbiology, 2021).

Tested on: T1, Mle046
T1 construct: signal peptide (first 27 residues) removed; His-tagged (pColdII), tag kept; codon-optimised gene, E. coli Shuffle T7; theoretical 62 kD
Assay: HPLC ([…] nm), MHET degradation rate, non-linear Michaelis-Menten fit
Format: biochemical, metagenome: marine microbial consortium
Conditions: 40 mM sodium phosphate pH 7.5, 30°C; rate declines at 2,700 μM MHET (fit up to 2,230 μM)

O=C(O)c1ccc(C(=O)OCCO)cc1 [MHET]
Km: 2640 µM
